The text below walks through data of patent US10933056B2, “3-(1H-pyrazol-4-yl)pyridine allosteric modulators of the M4 muscarinic acetylcholine receptor” (Merck Sharp & Dohme Corp., priority 2015, dated 2021).

The target in this assay is T1, human M4 muscarinic acetylcholine receptor (Homo sapiens, UniProt P08173).
T1 construct: expressed in transfected cells; host or cells: CHO-K1
T1 sequence (P08173 1-479): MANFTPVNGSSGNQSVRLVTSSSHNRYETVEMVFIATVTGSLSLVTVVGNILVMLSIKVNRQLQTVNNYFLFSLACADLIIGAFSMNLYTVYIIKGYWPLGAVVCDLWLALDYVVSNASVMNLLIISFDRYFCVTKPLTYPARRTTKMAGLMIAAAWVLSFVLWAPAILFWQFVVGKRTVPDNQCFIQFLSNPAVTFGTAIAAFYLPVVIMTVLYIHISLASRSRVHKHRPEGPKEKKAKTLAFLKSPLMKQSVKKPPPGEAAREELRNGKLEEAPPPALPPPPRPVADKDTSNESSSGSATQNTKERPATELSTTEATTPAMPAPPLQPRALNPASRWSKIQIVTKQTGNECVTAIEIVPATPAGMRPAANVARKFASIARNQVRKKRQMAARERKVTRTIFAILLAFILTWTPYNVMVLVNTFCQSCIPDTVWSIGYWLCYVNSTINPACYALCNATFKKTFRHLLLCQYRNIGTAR
The assay can be described thus: human FLIPR-based M4 PAM assay (calcium mobilization in CHO-K1 cells with human M4 receptor and Gαqi5). Format: cell-based. Particulars: inflection point of dose response curve, acetylcholine at 20% of maximum response, FLIPR Tetra, read-out: M4 PAM IP. Here is the method: (§1) In a typical experiment the M4 muscarinic acetylcholine receptor modulating activity of the compounds of the present invention was determined in accordance with the following experimental method. CHO-K1 cells stably transfected with human M4 receptor and chimeric G-protein Gαqi5 (Coward P, et al., Analytical Biochemistry, 270:242-248 (1999)) are thawed from liquid N2 storage, resuspended in growth medium, plated in black, clear bottom 384 well plates, and incubated 16-20 hours at 37° C., 5% CO2. On the day of assay, growth medium is removed, the cells are washed 2 times with wash buffer, and cells are incubated in dye loading buffer at 37° C., 5% CO2 for ˜1 hour. Following dye loading the cell plates are placed in a FLIPR Tetra instrument and while monitoring dye fluorescence (excitation […]), 10 uL of test substance at increasing concentrations is added, and fluorescence values are recorded for 4 min. Next, 10 uL of acetylcholine is added (final concentration calculated so as to achieve 20% of the maximum acetycholine response), and the fluorescence reading is continued for 3.5 min. In some cases, a third addition of acetylcholine (final concentration calculated to achieve 70% of the maximal acetylcholine response) is performed. The resulting dose response curves are fit to a 4 parameter logistic equation and the final result is determined as the inflection point (IP) of the curve
as §1, with “CHO-K1” for “In a typical experiment the M4 muscarinic acetylcholine receptor modulating activity of the compounds of the present invention was determined in accordance with the following experimental method. CHO-K1”, “Gαqi5” for “Gαqi5 (Coward P, et al., Analytical Biochemistry, 270:242-248 (1999))”, “performed.” for “performed. The resulting dose response curves are fit to a 4 parameter logistic equation and the final result is determined as the inflection point (IP) of the curve”

Turning to `CC1(Cn2ncc(-c3ccc(C#N)nc3-c3ccc4c(c3)C(=O)N(C3CC3)C4)c2F)CCCC1` [Example 44, 6-(2-cyclopropyl-3-oxoisoindolin-5-yl)-5-(5-fluoro-1-((1-methylcyclopentyl)methyl)-1H-pyrazol-4-yl)picolinonitrile], the EC50 came to 54 nM.
On to `CC1(Cn2cc(-c3cc4c(nc3-c3cnc5c(c3)C(=O)NC5)[C@H](F)CC4)cn2)CCCC1` [Example 39A, (R)-3-(7-fluoro-3-(1-((1-methylcyclopentyl)methyl)-1H-pyrazol-4-yl)-6,7-dihydro-5H-cyclopenta[b]pyridin-2-yl)-6,7-dihydro-5H-pyrrolo[3,4-b]pyridin-5-one], for which the EC50 was 58 nM.
With `Cc1cc(F)c(-c2cnn(CC3(C)CCCC3)c2)c(-c2ccc3c(c2)C(=O)N(C)C3)n1` [Example 126, 6-(4-fluoro-6-methyl-3-(1-((1-methylcyclopentyl)methyl)-1H-pyrazol-4-yl)pyridin-2-yl)-2-methylisoindolin-1-one] the figure was 71 nM.
Turning to `O=C1c2cc(-c3ncccc3-c3cnn(CC4CCCC4)c3)ccc2CN1CCc1ccccc1` [Example 92, 6-(3-(1-(cyclopentylmethyl)-1H-pyrazol-4-yl)pyridin-2-yl)-2-phenethylisoindolin-1-one], the EC50 was 45 nM.
With `CC(C)N1Cc2ncc(-c3nc(C#N)ccc3-c3cnn(CC4(C)CCCC4)c3)cc2C1=O` [Example 121, 6-(6-isopropyl-5-oxo-6,7-dihydro-5H-pyrrolo[3,4-b]pyridin-3-yl)-5-(1-((1-methylcyclopentyl)methyl)-1H-pyrazol-4-yl)picolinonitrile] the figure was 134 nM; with `CN1Cc2ccc(-c3nc(C#N)c(Cl)cc3-c3cnn(CC4(C)CCCC4)c3)cc2C1=O` [Example 78, 3-chloro-6-(2-methyl-3-oxoisoindolin-5-yl)-5-(1-((1-methylcyclopentyl)methyl)-1H-pyrazol-4-yl)picolinonitrile], 32 nM; with `O=C1c2cc(-c3ncccc3-c3cnn(CC4CCCC4)c3)ccc2CN1CC1CCC1` [Example 86, 2-(cyclobutylmethyl)-6-(3-(1-(cyclopentylmethyl)-1H-pyrazol-4-yl)pyridin-2-yl)isoindolin-1-one], 62 nM.
On to `CC1(Cn2cc(-c3cc(F)c(C#N)nc3-c3ccc4c(c3)C(=O)N(CC3CC3)C4)cn2)CCCC1` [Example 48, 6-(2-(cyclopropylmethyl)-3-oxoisoindolin-5-yl)-3-fluoro-5-(1-((1-methylcyclopentyl)methyl)-1H-pyrazol-4-yl)picolinonitrile], for which the EC50 is 76 nM.
The figure for `CC1(Cn2cc(-c3ccc(C#N)nc3-c3ccc4c(c3)C(=O)N(CC3CC3)C4)cn2)CCCC1` [Example 32, 6-(2-(cyclopropylmethyl)-3-oxoisoindolin-5-yl)-5-(1-((1-methylcyclopentyl)methyl)-1H-pyrazol-4-yl)picolinonitrile] is 7 nM; for `O=C1c2cc(-c3ncccc3-c3cnn(CC4CCCC4)c3)ccc2CN1C1CC1` [Example 93, 6-(3-(1-(cyclopentyl-methyl)-1H-pyrazol-4-yl)pyridin-2-yl)-2-cyclopropylisoindolin-1-one] it is 58 nM; for `CN1Cc2ncc(-c3nc(C#N)ccc3-c3cnn(CC4(C)CCCC4)c3F)cc2C1=O` [Example 54, 5-(5-fluoro-1-((1-methylcyclopentyl)methyl)-1H-pyrazol-4-yl)-6-(6-methyl-5-oxo-6,7-dihydro-5H-pyrrolo[3,4-b]pyridin-3-yl)picolinonitrile] it is 8 nM.
With `O=C1c2cc(-c3nccc(F)c3-c3cnn(CC4CCCC4)c3)ccc2CN1CC1CC1` [Example 7, 6-(3-(1-(cyclopentylmethyl)-1H-pyrazol-4-yl)-4-fluoropyridin-2-yl)-2-(cyclopropylmethyl)isoindolin-1-one] the figure was 22 nM; with `CC1(Cn2cc(-c3cc4c(nc3-c3cnc5c(c3)C(=O)N(CC3CC3)C5)[C@@H](F)CC4)cn2)CCCC1` (single isomer, unassigned) [Example 1B], 75 nM; with `N#Cc1ccc(-c2cnn(CC3CCCC3)c2)c(-c2ccc3c(c2)C(=O)N(CC2CC2)C3)n1` [Example 18, 5-(1-(cyclopentylmethyl)-1H-pyrazol-4-yl)-6-(2-(cyclopropylmethyl)-3-oxoisoindolin-5-yl)picolinonitrile], 8 nM.
The figure for `C#CCN1Cc2ncc(-c3nc4c(cc3-c3cnn(CC5(C)CCCC5)c3)CCC4)cc2C1=O` [Example 118, 3-(3-(1-((1-methylcyclopentyl)methyl)-1H-pyrazol-4-yl)-6,7-dihydro-5H-cyclopenta[b]pyridin-2-yl)-6-(prop-2-yn-1-yl)-6,7-dihydro-5H-pyrrolo[3,4-b]pyridin-5-one] is 79 nM.
As to `CN1Cc2ccc(-c3nc(C#N)ccc3-c3cn(CC4(C)CCCC4)nc3C#N)cc2C1=O` [Example 110, 5-(3-Cyano-1-((1-methylcyclopentyl)methyl)-1H-pyrazol-4-yl)-6-(2-methyl-3-oxoisoindolin-5-yl)picolinonitrile], the EC50 stood at 86 nM.
With `CN1Cc2ncc(-c3nc4c(cc3-c3cnn(CC5(C)CCCC5)c3F)CCC4)cc2C1=O` [Example 74, 3-(3-(5-fluoro-1-((1-methylcyclopentyl)methyl)-1H-pyrazol-4-yl)-6,7-dihydro-5H-cyclopenta[b]pyridin-2-yl)-6-methyl-6,7-dihydro-5H-pyrrolo[3,4-b]pyridin-5-one], the EC50 is 24 nM.
With `CN1Cc2ncc(-c3nc(C(F)F)ccc3-c3cnn(CC4(C)CCCC4)c3)cc2C1=O` [Example 80, 3-(6-(difluoromethyl)-3-(1-((1-methylcyclopentyl)methyl)-1H-pyrazol-4-yl)pyridin-2-yl)-6-methyl-6,7-dihydro-5H-pyrrolo[3,4-b]pyridin-5-one] the figure was 26 nM; with `O=C1c2cc(-c3nc(Cl)ccc3-c3cnn(CC4CCCC4)c3)ccc2CN1C1CC1` [Example 108, 6-(6-chloro-3-(1-(cyclopentylmethyl)-1H-pyrazol-4-yl)pyridin-2-yl)-2-cyclopropylisoindolin-1-one], 17 nM.
The figure for `O=C1c2cc(-c3nc(F)ccc3-c3cnn(CC4CCCC4)c3)ccc2CN1C1CC1` [Example 23, 6-(3-(1-(cyclopentylmethyl)-1H-pyrazol-4-yl)-6-fluoropyridin-2-yl)-2-cyclopropylisoindolin-1-one] is 34 nM.
In the case of `O=C1c2cc(-c3ncccc3-c3cnn(CC4CCCC4)c3)ccc2CN1C1COC1` [Example 88, 6-(3-(1-(cyclopentylmethyl)-1H-pyrazol-4-yl)pyridin-2-yl)-2-(oxetan-3-yl)isoindolin-1-one], the EC50 came to 240 nM.
With `CN1Cc2ccc(-c3ncc(F)cc3-c3cnn(CC4(C)CCCC4)c3)cc2C1=O` [Example 50, 6-(5-fluoro-3-(1-((1-methylcyclopentyl)methyl)-1H-pyrazol-4-yl)pyridin-2-yl)-2-methylisoindolin-1-one] the figure was 38 nM; with `CN1Cc2ccc(-c3ncccc3-c3cnn(CC4(C)CCCC4)c3)cc2C1=O` [Example 25, 2-methyl-6-(3-(1-((1-methylcyclopentyl)methyl)-1H-pyrazol-4-yl)pyridin-2-yl)isoindolin-1-one], 21 nM.
Regarding `Cc1ccc(-c2cnn(CC3CCCC3)c2)c(-c2ccc3c(c2)C(=O)N(CCc2ccccc2)C3)n1` [Example 4, 6-(3-(1-(cyclopentylmethyl)-1H-pyrazol-4-yl)-6-methylpyridin-2-yl)-2-phenethylisoindolin-1-one], the EC50 amounted to 37 nM.
For `CC#CCN1Cc2ncc(-c3nc(C#N)ccc3-c3cnn(CC4(C)CCCC4)c3)cc2C1=O` [Example 122, 6-(6-(but-2-yn-1-yl)-5-oxo-6,7-dihydro-5H-pyrrolo[3,4-b]pyridin-3-yl)-5-(1-((1-methylcyclopentyl)methyl)-1H-pyrazol-4-yl)picolinonitrile], the EC50 is 41 nM.
